Values of other authors in patent US20150208691A1, “NOVEL USE OF ALKOXYLATES OF MONO- AND POLYVALENT ALCOHOLS” (AB AGRI LIMITED, priority 2012, published 2015).
Read-outs that look alike come from different tables or passages of the source.

Assays:
methane emissions [1] = details: sheep
methane emissions [2] = details: cows, compared with sheep

Q: With C=CCS[S+]([O-])CC=C (centres unmarked) [Allicin] as the molecule, how does the “reduction of methane emissions” value (methane emissions [1]) read?
A: Its value is 20%.

Q: And the “reduction of methane emissions” value (methane emissions [2])?
A: The value was “not as effective”.
